For two molecules, IC50 results are on record in BindingDB's records for doi:10.1016/j.bmcl.2017.08.049 (Renmin Hospital of Wuhan University, 2018).

The nature of the test: Inhibition of HIV1 3B gp41-induced cell-cell fusion between viral protein expressing human H9 cells and MT-2 target cells assessed as number of syncytia formation treated for 2 hrs measured after 6 hrs.

Molecules are shown by their SMILES. pIC50: −log10 of the molar value.

Take `Cc1cc2c(c(O)c1-c1c(C)cc3c(c1O)/C(=C/NC(C)S(=O)(=O)O)C(=O)C(O)=C3C(C)C)/C(=C/NC(C)S(=O)(=O)O)C(=O)C(O)=C2C(C)C` (configuration not stated): the pIC50 was 5.18. As to `Cc1cc2c(c(O)c1-c1c(C)cc3c(c1O)/C(=C/NC(C)C(=O)NC(C)C(=O)O)C(=O)C(O)=C3C(C)C)/C(=C/NC(C)C(=O)NC(C)C(=O)O)C(=O)C(O)=C2C(C)C` (configuration not stated), the pIC50 was 5.15.
